Data from US10080728B2, “Hemostatic agent” (priority 2015, dated 2018).

Experiments:
[1] = tested on: itch at genital candidiasis; experiment: Itch reduction at genital candidiasis, ISS (Example 2.3); type: in vivo; conditions: rounded to the higher value
Experimental: Evaluation of the claimed substance's anesthetic activity to reduce itch at genital candidiasis was studied when applied onto mucosae in the form of a 0.01% to 10% solution or by administering vaginal suppositories containing the claimed substance. To evaluate the efficiency the change in the itch sensation intensity on the Itch Severity Score (ISS) in 1 minute after application/administration of the product and after 5 days in case of everyday administration was used.

[2] = tested on: bleeding and pain after medical interventions; experiment: Bleeding and pain in ENT, upper respiratory and digestive systems interventions (Example 2.17); type: in vivo, human
Experimental: Evaluation of the claimed substance efficiency for reduction of bleeding and pain in ENT, upper respiratory and digestive systems pathologies, in the course of instrumentation studies of these systems. Patients with various medical interventions after treatment with haemostatic purpose and pain reduction were treated with the claimed preparation. An iron subsulfate solution was used as a reference. For efficiency evaluation the change in the pain sensation intensity on the visual analog scale (VAS) from 0 to 10 points was used.

[3] = tested on: chest pain and bloody sputum; experiment: Inhalation in chronic obstructive pulmonary disease: chest pain VAS and blood in sputum (Example 2.13); type: in vivo, human; conditions: for Pain sensation intensity on a visual analog scale: chronic obstructive pulmonary disease, inhalation by nebulizer
pain with soft corn = experiment: Anesthetic activity, pain with soft corn, VAS (second Example 1.8); type: in vivo; conditions: soft corns
Experimental: Evaluation of the claimed substance's anesthetic activity was studied when dispersing a spray containing 0.01-10% of the preparation, or when applied at a concentration of 0.01% to 10% onto a bandaging material or a plaster for application onto the wound surface. An iron subsulfate solution was used as a reference. For efficiency evaluation the change in the pain sensation intensity on the visual analog scale (VAS) from 0 to 10 points in 1 minute after application of the product and after 2 days in everyday use was used.

[4] = tested on: capillary-parenchymal bleeding from liver wounds; experiment: Hemostatic activity of solution or spray on superficial liver wound (Example 1.1); type: in vivo, rabbits
Experimental: (§1) The influence of the claimed substance on the hemostatic function was examined in rabbits of both sexes weighing 2000-4000 g. The experiments were carried out under general anesthesia. The animals underwent a laparotomy with a section made along the white line of the abdomen. The intestine was exteriorized into the wound and limited by wipes moistened with 0.9% sodium chloride solution (temperature […]), as well as the front surface of the liver. A superficial wound of the liver by the area of 1.5 cm^2 and the depth of 0.1 cm was inflicted by means of a razor.
Arrest of the capillary-parenchymal bleeding was carried out by uniform application of a 1% solution or a spray of the claimed substance on the entire area of the wound surface. At that, iron subsulfat was used for comparison of the bleeding arrest time. Hemostatic activity was evaluated by the change of the bleeding intensity.

[5] = tested on: corneal sensitivity of the rabbit's eye; experiment: Topical (corneal) anesthetic activity in rabbit's eye (Example 2.1); type: in vivo, rabbits; conditions: 0.5% aqueous solution into the conjunctival sac of the rabbit's eye
Experimental: A study to determine anesthetic activity was carried out in unanesthetized rabbits, which were placed in a special box with a hole to restrain the animal's head. The study was conducted to determine the threshold of sensitivity of the rabbit's eye to a tactile impact. For this purpose, a thin metal wire was used without injuring the cornea. The examined compound and the reference drug (oxybuprocaine) were administered into the conjunctival sac of the rabbit's eye in the form of a 0.5% aqueous solution with the total volume of up to 0.4 ml. Determination of topical anaesthesia was performed starting from the 1st minute of the study. The absence of the blinking reflex for 1 min (100 touches) was considered as an indicator of full anesthesia. Based on the collected data reflecting the changes in corneal sensitivity under the influence of the drugs, the beginning, the duration of complete (100%) anesthesia and the total duration of anesthesia were determined.
The relative activity of the tested compounds was calculated according to the Valet equation. The Rainier index is 852.4 for the claimed preparation and 63.5 for the reference preparation. The duration of anesthesia was 234 minutes for the claimed preparation and 24 min for oxibuprocaine.

[6] = Nanostructure by electron-microscopic examination; type: physicochemical
Experimental: (§2) The nanostructure is determined by the methods of dynamic light scattering using a Malvern Instruments Nanosizer Nano-ZS particle size analyzer and a FEI Tecnai G212Cryo12 transmission electron microscope enabling tp cool the samples at the boiling point of liquid nitrogen.

[7] = Nanostructure by dynamic light scattering; type: physicochemical; conditions: preparation concentration 0.05 mg/ml
Experimental: as §2

postoperative pain = experiment: Postoperative pain syndrome after laparoscopic cholecystectomy, VAS (Example 2.8); type: in vivo, human
Experimental: Evaluation of efficiency of the claimed substance for pain reduction was studied in patients suffering the postoperative pain syndrome. After laparoscopic cholecystectomy the claimed substance was applied onto the affected areas of the patients in the form of a solution/spray in a concentration of 0.01% to 10%. As a comparison preparation for surface anesthesia oxybuprocaine was used. To evaluate efficiency the change in the pain sensation intensity on the visual analog scale (VAS) in 1 minute after application/administration of the preparation and after 2 days in case of everyday application was used.

eyeball pain = experiment: Eyeball pain in posttraumatic processes, VAS (Example 2.16); type: in vivo, human; conditions: eyeball lesions, instilled into the conjunctival sac
Description: Evaluation of efficiency of the claimed substance for eyeball pain reduction in posttraumatic processes. The claimed substance solution was instilled into the conjunctival sac of patients with various lesions of the eyeball, including after surgery. As a reference, diclofenac eye drops were used. For efficiency evaluation the change in the pain sensation intensity on the visual analog scale (VAS) from 0 to 10 points was used.

[8] = tested on: bleeding from liver wounds; experiment: Hemostatic activity together with aluminum sulfate gel or silver nitrate solution (Example 1.6); type: in vivo, rabbits
Experimental: as §1, with “razor. […] An animal model was used in the experiment, as described in Example No. 4. Hemostatic activity was evaluated by the change of the bleeding intensity.” for “razor.”

[9] = 1 minute after application of the preparation

Ferric Subsulfate [iron subsulphate]
Itch intensity on the Itch Severity Score (ISS) scale [1, 9]: 4 points
Itch intensity on the Itch Severity Score (ISS) scale ([1]; in 5 days (for daily administration)): 5 points
Pain sensation intensity on a visual analog scale ([2]; before treatment): 4.7 +/− 0.5 points
Pain sensation intensity on a visual analog scale ([2]; in 1 minute): 4.5 +/− 0.4 points
Pain sensation intensity on a visual analog scale ([2]; in 10 minute): 4.6 +/− 0.5 points
Pain sensation intensity on a visual analog scale ([3]; before treatment): 4.2 +/− 0.7
Pain sensation intensity on a visual analog scale ([3]; in 1 minute): 4.4 +/− 0.7
Pain sensation intensity on a visual analog scale ([3]; in 5 days): 4.2 +/− 0.7
Presence of bloody sputum ([3]; in 1 minute): +++
Pain sensation intensity on a visual analog scale (pain with soft corn; before treatment): 4.2 +/− 0.2 points
Pain sensation intensity on a visual analog scale (pain with soft corn; in 1 minute): 4.5 +/− 0.4 points
Pain sensation intensity on a visual analog scale (pain with soft corn; in 2 days, everyday use): 3.9 +/− 0.3 points
Relative intensity of bleeding from liver wounds ([4]; 180 seconds after application): 652.6 ± 108.2 mg/min
Relative intensity of bleeding from liver wounds ([4]; before application): 1326.4 ± 128.5 mg/min

polyammonia methanediamine chloride [the claimed preparation]
Rainier index (relative activity, Valet equation) [5]: 852.4
duration of anesthesia [5]: 234 min
size of globules [6]: 10-15 nm
size of globules in solution [7]: 10-15 nm

CCCCOc1cc(C(=O)OCCN(CC)CC)ccc1N [Oxybuprocaine, oxybuprocaine]
Rainier index (relative activity, Valet equation) [5]: 63.5
duration of anesthesia [5]: 24 min
Pain sensation intensity on a visual analog scale (postoperative pain; [9]): 2.2 +/− 0.4
Pain sensation intensity on a visual analog scale (postoperative pain; before treatment): 7.6 +/− 0.8
Pain sensation intensity on a visual analog scale (postoperative pain; in 2 days (daily administration)): 0.5 +/− 0.1

O=C(O)Cc1ccccc1Nc1c(Cl)cccc1Cl [Diclofenac solution, Diclofenac]
Pain sensation intensity on a visual analog scale (eyeball pain; before treatment): 6.9 +/− 0.8 points
Pain sensation intensity on a visual analog scale (eyeball pain; in 1 minute): 7.1 +/− 0.5 points
Pain sensation intensity on a visual analog scale (eyeball pain; in 10 minute): 7.2 +/− 0.6 points

O=[N+]([O-])[O-].[Ag+] [Silver nitrate solution (1:200), Silver nitrate]
Relative intensity of bleeding ([8]; 120 seconds after application): 1035.7 ± 119.0 mg/min
Relative intensity of bleeding ([8]; before application): 1437.5 ± 141.6 mg/min
